In patent US8609675B2, “Fused Tricyclic Compounds as novel mTOR inhibitors” (Merck Sharp & Dohme Corp., priority 2009, dated 2013):

The compounds below were run against human mTOR enzyme (Homo sapiens, UniProt P42345) (assay: mTOR Kinase Assay). Conditions: 5 μM ATP, 0.1 μM GST-S6K, rated A, B or C.
Type: biochemical
Method: The mTOR assay buffer contained 10 mM hepes (pH 7.4), 50 mM NaCl, 100 μg/ml BSA, 50 mM β-glycerophosphate, 10 mM MnCl2 and 0.5 mM DTT. 20 ng of human mTOR enzyme was preincubated with the compound for 10 minutes. 5 μM ATP and 0.1 μM GST-S6K was added. The reaction was incubated for one hour at 30° C. Anti phospho p70-S6K (about 1.7 ng/well) and anti GST-XL665 (1:1 Ratio with the substrate GST-56K) were added after incubating. The plates were read at least 2 hours after adding the anti phospho p70-S6K and the anti GST-XL665.
IC50 DETERMINATIONS: Dose-response curves were plotted from the inhibition data generated, each in duplicate, from 8 point serial dilutions of inhibitory compounds. Concentration of compound was plotted against % kinase activity, calculated by CPM of treated samples divided by CPM of untreated samples. To generate IC50 values, the dose-response curves were then fitted to a standard sigmoidal curve and IC50 values were derived by nonlinear regression analysis.

SMILES	IC50
O=C(O)CC1CCC(c2nc3c(-c4ccc(-c5ccccc5)nc4)cnn3c3[nH]ccc23)CC1 (mixture of isomers) [Compound 29]	< 1 nM
Cc1n[nH]c2c1c(C1CCS(=O)(=O)CC1)nc1c(-c3cnc4ccccc4c3)cnn12 [Compound 1, 3-(Quinolin-3-yl)-5-(1,1-dioxo-tetrahydro-2H-thiopyran-4-yl)-6-methyl-dipyrazolo[1,5-a:4′,3′-e]pyrimidine]	10 to 100 nM
Cc1n[nH]c2c1c(CC1CCC(C)(C(=O)O)CC1)nc1c(-c3ccc(-c4cccnc4)nc3)cnn12 (stereo not shown) [Compound 2]	1 to 10 nM
Cc1n[nH]c2c1c(CC1CCC(C)(C(=O)O)CC1)nc1c(-c3ccc(-c4ccccc4)nc3)cnn12 (stereo not shown) [Compound 3, 1-methyl-4-((3-methyl-6-(6-phenylpyridin-3-yl)-1H-dipyrazolo[1,5-a:4′,3′-e]pyrimidin-4-yl)methyl)cyclohexanecarboxylic acid]	1 to 10 nM
Cc1n[nH]c2c1c(CC1CCC(C)(C(=O)O)CC1)nc1c(-c3ccc(-c4cnn(C)c4)nc3)cnn12 (stereo not shown) [Compound 4]	1 to 10 nM
Cc1n[nH]c2c1c(CC1CCC(C(=O)O)CC1)nc1c(-c3ccc(-c4ccccc4)nc3)cnn12 (stereo not shown) [Compound 5, 4-((3-methyl-6-(6-phenylpyridin-3-yl)-1H-dipyrazolo[1,5-a:4′,3′-e]pyrimidin-4-yl)methyl)cyclohexanecarboxylic acid]	1 to 10 nM
Cc1n[nH]c2c1c(CC1CCC(C(=O)O)CC1)nc1c(-c3ccc(-c4cnn(C)c4)nc3)cnn12 (stereo not shown) [Compound 6, 4-((3-methyl-6-(6-(1-methyl-1H-pyrazol-4-yl)pyridin-3-yl)-1H-dipyrazolo[1,5-a:4′,3′-e]pyrimidin-4-yl)methyl)cyclohexanecarboxylic acid]	1 to 10 nM
Cc1n[nH]c2c1c([C@H]1CC[C@H](C(=O)O)CC1)nc1c(-c3cnc4ccccc4c3)cnn12 [Compound 7]	10 to 100 nM
Cc1n[nH]c2c1c([C@H]1CC[C@H](C(=O)O)CC1)nc1c(-c3ccc(-c4ccccc4)nc3)cnn12 [Compound 8, (1R,4R)-4-(3-methyl-6-(6-phenylpyridin-3-yl)-1H-dipyrazolo[1,5-a:4′,3′-e]pyrimidin-4-yl)cyclohexanecarboxylic acid]	< 1 nM
O=S1(=O)CCC(c2nc3c(-c4ccc(-c5ccccc5)nc4)cnn3c3[nH]ccc23)CC1 [Compound 9]	1 to 10 nM
O=S1(=O)CCC(c2nc3c(-c4ccc(-c5cccnc5)nc4)cnn3c3[nH]ncc23)CC1 [Compound 10]	10 to 100 nM
O=S1(=O)CCC(c2nc3c(-c4cnc5ccccc5c4)cnn3c3[nH]ccc23)CC1 [Compound 11]	1 to 10 nM
O=S1(=O)CCC(c2nc3c(-c4cnc5ccc(F)cc5c4)cnn3c3[nH]ccc23)CC1 [Compound 12]	1 to 10 nM
O=S1(=O)CCN(c2nc3c(-c4cnc5ccccc5c4)cnn3c3[nH]ccc23)CC1 [Compound 13]	1 to 10 nM
O=S1(=O)CCC(c2nc3c(-c4ccc(-c5ccccc5)nc4)cnn3c3[nH]ncc23)CC1 [Compound 15]	1 to 10 nM
O=S1(=O)CCC(c2nc3c(-c4cnc5ccc(F)cc5c4)cnn3c3[nH]ncc23)CC1 [Compound 16]	10 to 100 nM
CCc1n[nH]c2c1c(N1CCS(=O)(=O)CC1)nc1c(-c3cnc4ccccc4c3)cnn12 [Compound 17]	1 to 10 nM

SMILES	IC50
Cc1n[nH]c2c1c(C1CCS(=O)(=O)CC1)nc1c(-c3cnc4ccccc4c3)cnn12 [Compound 18]	1 to 10 nM
Cc1n[nH]c2c1c(C1CCS(=O)(=O)CC1)nc1c(-c3ccc(-c4cccnc4)nc3)cnn12 [Compound 19]	1 to 10 nM
Cc1n[nH]c2c1c(C1CCS(=O)(=O)CC1)nc1c(-c3ccc(-c4ccccc4)nc3)cnn12 [Compound 20]	1 to 10 nM
Cc1n[nH]c2c1c(C1CCS(=O)(=O)CC1)nc1c(-c3cnc4ccc(F)cc4c3)cnn12 [Compound 21]	1 to 10 nM
Cc1n[nH]c2c1c(C1CCC(CC(=O)O)CC1)nc1c(-c3ccc(-c4ccccc4)nc3)cnn12 (stereo not shown) [Compound 22, 2-(4-(3-methyl-6-(6-phenylpyridin-3-yl)-1H-dipyrazolo[1,5-a:4′,3′-e]pyrimidin-4-yl)cyclohexyl)acetic acid]	< 1 nM
O=C(O)[C@H]1CC[C@H](c2nc3c(-c4ccc(-c5ccccc5)nc4)cnn3c3[nH]ccc32)CC1 [Compound 23, (trans)-4-(3-(6-phenylpyridin-3-yl)-8H-pyrazolo[1,5-a]pyrrolo[3,2-e]pyrimidin-5-yl)cyclohexanecarboxylic acid]	1 to 10 nM
O=C([C@H](O)CO)N1CCC(c2nc3c(-c4ccc(-c5ccccc5)nc4)cnn3c3[nH]ccc23)CC1 [Compound 24, (R)-2,3-dihydroxy-1-(4-(3-(6-phenylpyridin-3-yl)-8H-pyrazolo[1,5-a]pyrrolo[3,2-e]pyrimidin-5-yl)piperidin-1-yl)propan-1-one]	1 to 10 nM
C[C@@H](O)C(=O)N1CCC(c2nc3c(-c4ccc(-c5ccccc5)nc4)cnn3c3[nH]ccc23)CC1 [Compound 25, (R)-2-hydroxy-1-(4-(3-(6-phenylpyridin-3-yl)-8H-pyrazolo[1,5-a]pyrrolo[3,2-e]pyrimidin-5-yl)piperidin-1-yl)propan-1-one]	1 to 10 nM
Cc1n[nH]c2c1c(CNC1CCOCC1)nc1c(-c3cnc4ccccc4c3)cnn12 [Compound 26, N-((3-methyl-6-(quinolin-3-yl)-1H-dipyrazolo[1,5-a:4′,3′-e]pyrimidin-4-yl)methyl)tetrahydro-2H-pyran-4-amine]	1 to 10 nM
CS(=O)(=O)N1CCC(c2nc3c(-c4ccc(-c5ccccc5)nc4)cnn3c3[nH]ccc23)C1 (stereo not shown) [Compound 27, 5-(1-(methylsulfonyl)pyrrolidin-3-yl)-3-(6-phenylpyridin-3-yl)-8H-pyrazolo[1,5-a]pyrrolo[3,2-e]pyrimidine]	1 to 10 nM
CC1(C(=O)O)CC=C(c2nc3c(-c4ccc(-c5ccccc5)nc4)cnn3c3[nH]ccc23)CC1 (stereo not shown) [Compound 28]	1 to 10 nM
Cc1n[nH]c2c1c(C1CCN(C(=O)[C@@H](C)O)CC1)nc1c(-c3ccc(-c4ccccc4)nc3)cnn12 [Compound 30, (R)-2-hydroxy-1-(4-(3-methyl-6-(6-phenylpyridin-3-yl)-1H-dipyrazolo[1,5-a:4′,3′-e]pyrimidin-4-yl)piperidin-1-yl)propan-1-one]	1 to 10 nM
O=S1(=O)CCC(c2nc3c(-c4cnc5ccc(F)cc5c4)cnn3c3[nH]cc(Cl)c23)CC1 [Compound 31]	1 to 10 nM
O=S1(=O)CCC(c2nc3c(-c4ccc(-c5ccccc5)nc4)cnn3c3[nH]cc(Cl)c23)CC1 [Compound 32]	1 to 10 nM
C[C@@H](O)C(=O)N1CCC(Cc2nc3c(-c4ccc(-c5ccccc5)nc4)cnn3c3[nH]ccc23)CC1 [Compound 33, (R)-2-hydroxy-1-(4-((3-(6-phenylpyridin-3-yl)-8H-pyrazolo[1,5-a]pyrrolo[3,2-e]pyrimidin-5-yl)methyl)piperidin-1-yl)propan-1-one]	10 to 100 nM
C[C@@H](O)C(=O)N1CCC(c2nc3c(-c4ccc(-c5ccccc5)nc4)cnn3c3[nH]cc(Cl)c23)CC1 [Compound 34, (R)-1-(4-(6-chloro-3-(6-phenylpyridin-3-yl)-8H-pyrazolo[1,5-a]pyrrolo[3,2-e]pyrimidin-5-yl)piperidin-1-yl)-2-hydroxypropan-1-one]	1 to 10 nM
C[C@@H](O)C(=O)N1CCC(Oc2nc3c(-c4ccc(-c5ccccc5)nc4)cnn3c3[nH]ccc23)CC1 [Compound 35, (R)-2-hydroxy-1-(4-(3-(6-phenylpyridin-3-yl)-8H-pyrazolo[1,5-a]pyrrolo[3,2-e]pyrimidin-5-yloxy)piperidin-1-yl)propan-1-one]	10 to 100 nM
